Numbers after ± are expanded uncertainties.
Columns and labels:
[1] = refractive index (Na D-line) (dimensionless); details: 101.33 kPa, Liquid, Standard Abbe refractometry
[2] = 101.33 kPa, Liquid, Vibrating tube method
[3] = relative permittivity at zero frequency (dimensionless); details: 101.33 kPa, Liquid, Parallel plate capacitor
[4] = relative permittivity at zero frequency (dimensionless); xn = mol fraction of the nth substance listed; details: 101 kPa, Liquid, Parallel plate capacitor
[5] = refractive index (Na D-line) (dimensionless); xn = mol fraction of the nth substance listed; details: 101 kPa, Liquid, Standard Abbe refractometry

C1COCCO1 [1,4-dioxane]
Details | mass density, [2] [kg/m3] | refractive index, [1] | relative permittivity at zero frequency, [3]
298.2 K | 1027.9 ± 0.27 | 1.4201 ± 0.0004 | 2.228 ± 0.01
308.2 K | 1016.11 ± 0.26 | 1.4142 ± 0.0004 | 2.21 ± 0.01
318.2 K | 1005 ± 0.3 | 1.4084 ± 0.0004 | 2.187 ± 0.01

C1COCCO1 [1,4-dioxane] + CCC(O)CO
x2 = 0
Details | refractive index, 298.2 K | refractive index, 308.2 K | refractive index, 318.2 K | relative permittivity at zero frequency, 298.2 K | relative permittivity at zero frequency, 308.2 K | relative permittivity at zero frequency, 318.2 K
[4] | – | – | – | 2.228 ± 0.01 | 2.209 ± 0.01 | 2.187 ± 0.01
[5] | 1.4201 ± 0.0004 | 1.4142 ± 0.0004 | 1.4084 ± 0.0004 | – | – | –

CCC(O)CO (centres undefined) [1,2-butanediol] + CCCCC(CC)CO
x1 = 1
Details | refractive index, 298.2 K | refractive index, 308.2 K | refractive index, 318.2 K | relative permittivity at zero frequency, 298.2 K | relative permittivity at zero frequency, 308.2 K | relative permittivity at zero frequency, 318.2 K
[4] | – | – | – | 22.143 ± 0.037 | 20.365 ± 0.036 | 18.661 ± 0.036
[5] | 1.4372 ± 0.0005 | 1.4312 ± 0.0005 | 1.4281 ± 0.0005 | – | – | –

CCCCC(CC)CO (centres undefined) [2-ethyl-1-hexanol]
Details | mass density, [2] [kg/m3] | refractive index, [1] | relative permittivity at zero frequency, [3]
298.2 K | 830.62 ± 0.22 | 1.4293 ± 0.0004 | 7.353 ± 0.022
308.2 K | 823.1 ± 0.22 | 1.4252 ± 0.0004 | 6.361 ± 0.021
318.2 K | 814.91 ± 0.23 | 1.4213 ± 0.0004 | 5.522 ± 0.02

CCC(O)CO (centres undefined) [1,2-butanediol]
Details | mass density, [2] [kg/m3] | refractive index, [1] | relative permittivity at zero frequency, [3]
298.2 K | 998.67 ± 0.85 | 1.4372 ± 0.0005 | 22.143 ± 0.037
308.2 K | 991.15 ± 0.84 | 1.433 ± 0.0005 | 20.365 ± 0.036
318.2 K | 983.55 ± 0.83 | 1.4288 ± 0.0005 | 18.661 ± 0.036
